# In patent US20250236614A1, “BICYCLIC TETRAHYDROAZEPINE DERIVATIVES” (Hoffmann-La Roche Inc., priority 2022, published 2025):
# Read-outs that look alike come from different tables or passages of the source.
# Tests used:
# primary human T-cells = experiment: T-cell proliferation assay (CellTiter-Glo); format: cell-based; details: isomer A; for EC50: CD3 antibody-stimulated T-cells, CellTiter-Glo after 5 days, read-out: Tcell Proliferation CD3 EC50; for Emax: read-out: Emax proliferation (% activation)
# Procedure: Expanded primary human T-cells are thawed and cultured in RPMI 1640 (Gibco, #61870-010)+5% human serum (HS, Sigma, #H3667)+1 mM Sodium Pyruvate (Gibco, #11360-039)+50 μM 2-mercaptoethanol (Gibco, #31350-010) and 1× Pen-Strep (Life Technologies, #15140122) medium at density of 2 Mio/ml for 3 hours in 5% CO2, 37° C. and 95% humidity. For coating of plates, PBS++ only or PBS++ with CD3 antibody (concentration depending on donor and determined by CD3 titrations) is added 100 μl/well to Poly-D Lysine coated 96-well plates. Plates are sealed and incubated at room temperature for 3 hours on a table-top rocking platform. After incubation, plates are washed once with PBS−− and filled with 40 μl/well culture medium only. Compounds are then added (see next section) to medium only plates. After 3 hours of culturing the T-cells, cells are filtered through a cell strainer (Miltenyi Biotech, #130-041-407), counted again and concentration is adjusted to 1.25 Mio/ml.
# Cells are then seeded 80 μl/well to the 40 μl/well including dispensed compounds according to plate layout. By adding cells, compounds are further diluted 1:3, and resulting in 100k cells/120 μl/well. After 48 hours 40 μl of supernatant is collected carefully from the top while not disturbing the cells. Cells are assessed for proliferation 5 days later by measuring […] using CellTiterGlo (Promega).
# Compounds were added in a 5 or 6 pt dose response with the Tecan D300e Digital Dispenser, all conditions 3 times more concentrated than the end-concentration, since cells are added afterwards (80 μl cells to 40 μl prepared medium with treatment). The DR was starting at 20 μM or 10 μM final top concentration and a dilution factor of 3.333. The positive control was the reference compound A1 that was added in a dose response as well, additionally to 3 wells of only 20 μM representing the positive stimulator control. All wells were normalized with DMSO to a final concentration of 0.6% (0.2% end-concentration).
# After 5 days, for detection of ATP which is directly proportional to the number of cells present per well, the CellTiter-Glo® 2.0 Reagent is used. After visual control for toxicity or precipitations of the tested compounds, the plates are equilibrated to room temperature for 45 minutes. CellTiter-Glo® 2.0 Reagent is equilibrated to room temperature as well. After equilibration, an equal amount of CellTiter-Glo reagent is added to the cells (80 μl/well) with an electronic multichannel pipette. Plates are placed on a rocking platform for 15 minutes at room temperature. After incubation, the bottom of the plates is sealed with backing tape. Luminescence is measured with PHERAstar FSX (interval time 0.5 sec, gain 3000, focal height 15 mm) and exported as CSV file for analysis in Genedata screener.
# CD3 and PBS plates were analysed separately in Genedata Screener using Roche Normalization PCT_POS_CTRL with DMSO set as Neutral Control and 20 μM of the reference compound A1 set as Stimulator Control/100%.
# For CD3 conditions EC50 and Emax of the fitted sigmoidal curve were reported. If no curve could be fitted, the EC50 was reported as blank field and the Emax was based on individual data points. […] Compounds which activate unstimulated cells (see IL2 measurements) or compounds which negatively affected viability were flagged.
# MV-3 RFP cells = experiment: T-cell TCB MV3 killing assay; format: cell-based, human; details: isomer A; for EC50: primary human T-cells + MCSP-TCB on MV-3 RFP cells, imaging over 120 hours, read-out: MSCP TCB killing MV-3 cells 5 d EC50; for Emax: Homo sapiens, MV-3, 120 h, read-out: MSCP TCB killing MV-3 cells 5 d Emax (%)
# Procedure: All culturing steps are executed at 5% CO2, 37° C. and 95% humidity.
# MV-3 RFP cells are cultured in MV-3 medium (DMEM+10% FBS, 1× PenStrep and 0.5 μg/mL Puromycin) for at least 3 weeks. Cultured MV-3 cells at 80% confluency are washed once with PBS−− and trypsinized until detached. Cells are then counted and resuspended to 1*10^5 cells/mL in T-cell medium (RPMI 1640+5% human serum+1 mM Sodium Pyruvate+50 μM 2-mercaptoethanol and 1× Pen-Strep). Cells are seeded with 100 μL/well into a 96-well plate (TTP, #92696), and placed for 40 minutes without moving at room temperature in order to achieve evenly distributed attachment of cells. Plates are then incubated until further use.
# On the next day, expanded primary human T-cells are thawed and resuspended in T-cell medium to 4*10^6 cells/mL. For 3 hours, they are cultured in a 6-well plate with 6 mL per well at maximum. After culturing the T-cells, they are filtered through a cell strainer (Miltenyi Biotech, #130-041-407), counted again, and cell concentration is adjusted to 2*10^6 cells/mL.
# MCSP-TCB or PBS are pre-diluted in T-cell medium (concentration depending on T-cell donor), 4 times more concentrated than the end-concentration. 60 μL/well of pre-dilutions are then distributed into a round bottom plate (Costar, #3799) according to plate layout. Compounds are added in a 9 pt dose response with the Tecan D300e Digital Dispenser, as well 4 times more concentrated than the end-concentration. DMSO concentration of all wells is adjusted to 0.8%, resulting in 0.2% as final concentration.
# 60 μL per well of T-cell suspension are added to the prepared round bottom plate and resuspended with a manual multichannel. 100 μL/well of the resuspended T-cell suspension including treatments are then transferred cautiously to the over-night cultured MV-3 cells according to plate layout. 100 μL T-cell medium only is added to the outer MV-3 wells only. Final compound DR is starting at 20 μM with a dilution factor of 3.333. Final TCB concentration is between […] and was determined for each T-cell donor individually by running TCB titrations. For each donor, a TCB concentration was chosen which corresponds to 10-20% of MV3 baseline cell killing in the absence of compound treatment. Positive control is the reference compound A1 which is added in a DR, as well as additional wells with only 20 μM. 20 μM of reference compound A1 represent the positive stimulator control, TCB only (DMSO wells) the neutral control.
# After transfer of T-cells with treatment pre-dilutions, MV-3 cells are imaged by time-lapse microscopy using IncucyteZOOM™ (Essen BioScience, MI, USA). Imaging is performed every 3 hours for a total of 120 hours (10× objective, phase and red image channels, acquisition time 400 ms, Green/Red 4614 optical module). RFP object count per well is analysed in the IncucyteZOOM™ Software (Version 2019B Rev2) with a mask that was previously created and optimized for MV-3 cells. Raw data is exported as object count/well and values are normalized as % TCL compared to wells with MV-3 only, representing 100% growth and therefore 0% TCL.
# Calculated 00 TCL values are analysed in Genedata Screener using Roche Normalization PCT_POS_CTRL with MCSP-TCB only set as Neutral Control and 20 μM of the reference compound A1 set as Stimulator Control/100%.
# Induced TCL by compounds without TCB treatment or toxicity (observed in the PBS condition) were be flagged.
# [1] = 20 μM reference compound A1 = 100%, MCSP-TCB only neutral control
# [2] = Homo sapiens, T-cell, 120 h, CD3 condition, 5 days, 20 μM reference compound A1 = 100%, DMSO neutral control
molecule,measurement,setting,value
"2-methyl-2-[5-[(3S)-3-amino-5,5,7-trifluoro-2-oxo-1-[[4-(trifluoromethoxy)phenyl]methyl]-3,4-dihydro-1-benzazepin-8-yl]-1,3,4-oxadiazol-2-yl]propanenitrile and 2-methyl-2-[5-[(3R)-3-amino-5,5,7-trifluoro-2-oxo-1-[[4-(trifluoromethoxy)phenyl]methyl]-3,4-dihydro-1-benzazepin-8-yl]-1,3,4-oxadiazol-2-yl]propanenitrile [Example 2]",EC50,primary human T-cells,315 nM
same,Emax proliferation (% activation),"primary human T-cells; CD3 condition, 5 days, 20 μM reference compound A1 = 100%, DMSO neutral control",161 % activation
same,MSCP TCB killing MV-3 cells 5 d Emax (%),MV-3 RFP cells; [1],93%
same,EC50,MV-3 RFP cells,43 nM
"CC(C)(c1nnc(-c2cc3c(cc2F)C(F)(F)CC(N)C(=O)N3Cc2ccc(Oc3ccccc3)cc2)o1)S(C)(=O)=O (racemic) [Example 5, (3S)-3-amino-5,5,7-trifluoro-8-[5-(1-methyl-1-methylsulfonyl-ethyl)-1,3,4-oxadiazol-2-yl]-1-[(4-phenoxyphenyl)methyl]-3,4-dihydro-1-benzazepin-2-one and (3R)-3-amino-5,5,7-trifluoro-8-[5-(1-methyl-1-methylsulfonyl-ethyl)-1,3,4-oxadiazol-2-yl]-1-[(4-phenoxyphenyl)methyl]-3,4-dihydro-1-benzazepin-2-one]",EC50,"primary human T-cells; Homo sapiens, T-cell, 120 h",684 nM
same,Emax,primary human T-cells; [2],249%
same,Emax,MV-3 RFP cells; [1],130%
same,EC50,MV-3 RFP cells,372 nM
"COC(F)(c1nnc(-c2cc3c(cc2F)C(F)(F)C[C@H](N)C(=O)N3Cc2ccc(OC(F)(F)F)cc2)o1)C(F)(F)F (single isomer, unassigned) [Example 4]",EC50,"primary human T-cells; Homo sapiens, T-cell, 120 h",140 nM
same,Emax,primary human T-cells; [2],112%
same,Emax,MV-3 RFP cells; [1],94%
same,EC50,MV-3 RFP cells,69 nM
"CC(C)(c1nnc(-c2cc3c(cc2F)C(F)(F)C[C@@H](N)C(=O)N3Cc2ccc(-c3ccc(C(F)(F)F)cn3)cc2)o1)S(C)(=O)=O (single isomer, unassigned) [Example 8]",EC50,"primary human T-cells; Homo sapiens, T-cell, 120 h",185 nM
same,Emax,primary human T-cells; [2],86%
same,Emax,MV-3 RFP cells; [1],100%
"COc1ccc(-c2ccc(CN3C(=O)[C@H](N)CC(F)(F)c4cc(F)c(-c5nnc(C(C)(C)C#N)o5)cc43)cc2)cc1 (single isomer, unassigned) [Example 9]",EC50,"primary human T-cells; Homo sapiens, T-cell, 120 h",267 nM
same,Emax,primary human T-cells; [2],114%
same,Emax,MV-3 RFP cells; [1],92%
"CC(C)(C#N)c1nnc(-c2cc3c(cc2F)C(F)(F)C[C@@H](N)C(=O)N3Cc2ccc(-c3ccc(C(F)(F)F)cn3)cc2)o1 (single isomer, unassigned) [Example 12]",EC50,"primary human T-cells; Homo sapiens, T-cell, 120 h",409 nM
same,Emax,primary human T-cells; [2],152%
same,Emax,MV-3 RFP cells; [1],103%
"N[C@@H]1CC(F)(F)c2cc(F)c(-c3nnc(N4CCCC4)o3)cc2N(Cc2ccc(-c3noc(C(F)(F)F)n3)cc2)C1=O (single isomer, unassigned) [Example 14]",EC50,"primary human T-cells; Homo sapiens, T-cell, 120 h",593 nM
same,Emax,primary human T-cells; [2],149%
same,Emax,MV-3 RFP cells; [1],113%
"CC(C)(c1nnc(-c2cc3c(cc2F)C(F)(F)C[C@@H](N)C(=O)N3Cc2ccc(-c3noc(C(F)(F)F)n3)cc2)o1)S(C)(=O)=O (single isomer, unassigned) [Example 16]",EC50,"primary human T-cells; Homo sapiens, T-cell, 120 h",296 nM
same,Emax,primary human T-cells; [2],241%
same,Emax,MV-3 RFP cells; [1],84%
"N[C@@H]1CC(F)(F)c2cc(F)c(-c3nnc(N4CCOC5(CC5)C4)o3)cc2N(Cc2ccc(-c3noc(C(F)(F)F)n3)cc2)C1=O (single isomer, unassigned) [Example 17]",EC50,"primary human T-cells; Homo sapiens, T-cell, 120 h",558 nM
same,Emax,primary human T-cells; [2],115%
same,Emax,MV-3 RFP cells; [1],105%
"CC(C)(C#N)c1nnc(-c2cc3c(cc2F)C(F)(F)C[C@@H](N)C(=O)N3Cc2ccc(-c3ccc(OC(F)F)cn3)cc2)o1 (single isomer, unassigned) [Example 41]",EC50,"primary human T-cells; Homo sapiens, T-cell, 120 h",196 nM
same,Emax,primary human T-cells; [2],113%
same,Emax,MV-3 RFP cells; [1],98%
